From patent US20250304526A1, “HIGH AND MULTIPLE REDOX POTENTIAL, STABLE, AND SOLUBLE BIS-DIARYLAMINE DERIVATIVES AND USES THEREOF” (University of Kentucky Research Foundation, priority 2024, published 2025)
Converted amounts (≈) assume the structure as drawn. Where two headings read alike, the source gives them in different places.

Tests used:
Assay type in all cases: physicochemical
[1] = Solubility determination in pure acetonitrile by mass measurement
Protocol: The solubility of the compounds in pure acetonitrile was determined by the mass measurement method described previously. Saturated solutions of each compound were prepared and filtered to remove any undissolved material. Afterwards, 3 mL of each solution were taken and added to previously weighed vials (the measurement was repeated three times for each solution, i.e. 3 vials for each solution). The vials were then stored open in a nitrogen-filled glove box to allow the slow evaporation of the solvent. After 10 days, acetonitrile was evaporated from all vials, leaving only the previously dissolved solid. The vials were then re-weighed and the mass of the solid was determined by subtracting the mass of the respective empty vial. The concentration of the compound was calculated from the mass of the dissolved solid and the volume of the sample placed into the vial.
The solubilities of 1-4 were examined in pure CH3CN using the mass measurement method.

[2] = Cyclic voltammetry (redox potentials, diffusion coefficients); conditions: for Redox peak of radical cation formation (first oxidation potential): 1 mM, 0.1 M TBAPF6 in CH3CN, glassy carbon; for Kc (comproportionation constant): calculated from ΔE at 298 K
Protocol: CV measurements were carried out in a nitrogen-filled glovebox at ambient glovebox temperature using a VSP-300 potentiostat (BioLogic). Unless otherwise indicated, the CVs were recorded in 0.2 M TBAPF6/CH3CN as electrolyte with 3 mm diameter glassy carbon (CH Instruments, Inc.) as the working electrode. A non-aqueous Ag/Ag^+ (silver wire immersed in CH3CN containing 0.1 M TBABF4 and 0.01 M AgBF4) electrode was used as the reference electrode, and a Pt wire (CH Instruments, Inc.) as the counter electrode. Before each measurement, glassy carbon electrodes were mechanically polished with an aqueous slurry of graded alumina (0.05 μm), then ultra-sonicated in water then acetone for 1 min each. Voltammograms were recorded at a scan rate of 100 mV·s^−1. Ferrocene was used as an internal reference and the oxidation potentials were calibrated with respect to ferrocene/ferrocenium (Cp2Fe^0/+) redox couple. The diffusion coefficients were determined using Randles-Sevick equation: […]
with R being the perfect gas constant (8.314 J·mol^−1·K^−1), F the Faraday's constant (96485 C·mol^−1), T the absolute temperature (˜298 K), ip is the peak current intensity (in A), n the number of transferred electrons, A the area of the electrode (cm^2), D the diffusion coefficient (cm^2·s^−1), v the scan rate (V·s^−1) and c the concentration (mol·cm^−3). Data obtained from voltammograms at scan rates of 25, 50, 75, 100, 200, 300 and 400 mV·s^−1 were used for the calculation of diffusion coefficients.
Electrochemical characterization of 1-4 was achieved by cyclic voltammetry (CV) in 0.1 M TBAPF6 in CH3CN. Glassy carbon was used as the working electrode and 1 mM of active materials were used. All derivatives featured two distinct one-electron oxidation waves upon voltage sweep. The first and the second waves correspond to the sequential neutral to radical-cation and radical-cation to dication transformations, respectively. These features are in line with the presence of two redox centers in these molecules. The redox peaks associated with the radical cation formation for molecules 1 and 2 are centered at 0 and 0.17 V vs Fc^+/Fc, respectively (FIG. 4). These values are in line with the data reported in literature for the same molecules.^8 Note that in previous literature the electrochemistry is reported in 0.1 M TBAClO4 in dichloromethane and reported versus a Ag/AgCl reference electrode. The Fc^+/Fc couple has a redox potential at 0.403 V vs SCE and 0.44 V vs Ag/AgCl reference electrode. On the other hand, molecules 3 and 4 feature the radical cation transformation redox peaks at 0.41 and 0.53 V vs Fc^+/Fc, respectively (FIG. 4).
In fact, these molecules belong to a class of compounds known as mixed-valence (MV) compounds. Mixed valency is a term that refers to a chemical species, whether organic or inorganic, with two or more redox centers that have different oxidation stated. This concept was first introduced in 1915 by Hofmann and Hoeschele. MV species are usually intensely colored due to the unique electronic transitions associated with intervalence electron transfer. CV is a useful technique in studying MV species since it provides insights on how stable one ionic species will be with respect to disproportionation, using the comproportionation constant (Kc). Kc is used to measure the ease of isolating the radical-cation rather than obtaining a mixture of neutral, radical-cationic, and dicationic species. Kc can be calculated from the ΔE which is the value of the redox potential difference between the first and the second oxidation events. Kc is a quantity used to evaluate the electronic communication between two redox centers in mixed-valence species. Large comproportionation constant, i.e. a substantial value of ΔE, is a crucial requirement for the isolation of mixed-valence species separately of other oxidation states of the species. Kc is defined as: […]

[3] = Stability via UV-vis spectroscopy over 24 h; conditions: 0.5 mM in 0.1 M TBAPF6/CH3CN
Protocol: In an argon-filled glove box, 0.5 mM solutions of neutral and radical cation were prepared in acetonitrile and pipetted into 1 mm path length optical glass cuvettes. The choice of this path length of cuvette is dictated by the aim to prevent the UV-vis detector saturation of the intensely colored cationic species. All samples destined to UV-vis stability monitoring contained 0.1 M TBAPF6 whereas UV-NIR samples were in pure CH3CN. Solutions were added to the cuvettes inside an argon filled glovebox, sealed with a Teflon screw cap and removed from the glovebox for spectral analysis. UV-vis spectra were collected in an Agilent 8453 diode-array spectrometer. Spectra were collected at 0, 1, 3, 4, 5, 6 and 24 h after dissolution.
UV-vis spectroscopy provides a means to monitor the stabilities of the radical cations over prolonged time scales that extend beyond that offered by CV. This is possible since all the charged forms show absorption features in the UV and visible regions, which enables monitoring of the change of concentrations over the course of time, based on changes in peak intensities.
The radical cation samples were prepared in 0.1 M TBAPF6/CH3CN inside an argon-filled glovebox and transferred into sealed cuvettes to prevent contact with atmospheric moisture/air when taken outside the glovebox. […]
The neutral samples of each molecule were also monitored for the sake of comparison. […]

[4] = organic solvent or mixture, thermodynamic from solid, read-out: Solubility

SMILES | solubility [1] | solubility [1, 4] | Redox peak of radical cation formation (first oxidation potential) [2] | Kc (comproportionation constant) [2] | Stability of radical cation UV-vis absorption spectrum [3]
COc1ccc(N(c2ccc(OC)cc2)c2ccc(N(c3ccc(OC)cc3)c3ccc(OC)cc3)cc2)cc1 [1^+⋅] | 8.76 mM (≈ 4670 µg/mL) | 9 mM (≈ 4790 µg/mL) | 0 V vs Fc^+/Fc | 3 × 10^6 | –
COc1ccc(N(c2ccc(OC)cc2)c2ccc(-c3ccc(N(c4ccc(OC)cc4)c4ccc(OC)cc4)cc3)cc2)cc1 [2^+⋅] | – | 3.5 mM (≈ 2130 µg/mL) | 0.17 V vs Fc^+/Fc | 5 × 10^2 | –
Cc1ccc(C(F)(F)F)cc1N(c1ccc(N(c2cc(C(F)(F)F)ccc2C)c2cc(C(F)(F)F)ccc2C)cc1)c1cc(C(F)(F)F)ccc1C [3^+⋅] | 13.34 mM (≈ 9880 µg/mL) | 13 mM (≈ 9630 µg/mL) | 0.41 V vs Fc^+/Fc | 3 × 10^8 | very subtle changes
Cc1ccc(C(F)(F)F)cc1N(c1ccc(-c2ccc(N(c3cc(C(F)(F)F)ccc3C)c3cc(C(F)(F)F)ccc3C)cc2)cc1)c1cc(C(F)(F)F)ccc1C [4^+⋅] | – | 13 mM (≈ 10600 µg/mL) | 0.53 V vs Fc^+/Fc | 5 × 10^2 | rapid decay
